Literature values as cited in patent publication US8741342B2, “Pharmaceutical compositions comprising entacapone, levodopa, and carbidopa” (Wockhardt Research Centre, priority 2006, dated 2014).

Details: qualitative description in background section

SMILES	solubility in water
C[C@@](Cc1ccc(O)c(O)c1)(NN)C(=O)O [Carbidopa, (−)-L-(α-hydrazino-(α-methyl-β-(3,4-dihydroxybenzene)propanoic acid monohydrate]	slightly soluble in water
N[C@@H](Cc1ccc(O)c(O)c1)C(=O)O [Levodopa, (−)-L-α-amino-β-(3,4-dihydroxybenzene)propanoic acid]	slightly soluble in water
